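Test compounds were applied to cells in 96-well plates for 48 hours at 5 doses. TGI: concentration producing complete growth inhibition.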

This is an account of results in PubChem BioAssay (NCI).

Assay in all cases: DTP human tumour cell line panel, 48 h
In assay [1] the test system is NCI-H23 lung.
Assay [2] relates to U251 CNS.
Assay [3] concerns HT29 colon.
In assay [4] the test system is SNB-75 CNS.
Assay [5] deals with HOP-62 NSCLC.
Assay [6] has as its system SK-MEL-28 melanoma.
For assay [7], the system named is T-47D breast.
Assay [8] deals with A498 renal.
Assay [9] relates to CAKI-1 renal.
The subject of assay [10] is SF-295 CNS.
Assay [11] concerns NCI-H460 lung.
For assay [12], the system named is BT-549 breast.
In assay [13] the test system is HCT-116 colon.
The test system of assay [14] is OVCAR-3 ovarian.
Assay [15] concerns SNB-19 CNS.
Assay [16] concerns MALME-3M melanoma.
Assay [17] deals with NCI-H522 lung.

Consider `CCOC(=O)CC[C@H](N)C(=O)N[C@@H](Cc1ccc(N(CCCl)CCCl)cc1)C(=O)OCC`, for which the TGI (usually the concentration at which net growth stops) was determined as 1.35 µM in assay [1]; 7.39 µM in assay [2]; 4.19 µM in assay [3]; 4.44 µM in [4]; 9.94 µM in assay [5]; 2.38 µM in [6]. The total growth inhibition concentration (TGI) came out at 8.49 µM in assay [7]; 42 µM in assay [8]; 4.39 µM in assay [9]; 14.8 µM in [10]; 2.48 µM in [11]; 22.3 µM in assay [12]. Further, the TGI in assay [13] came to 4.09 µM; in assay [14] it was 1.82 µM; in [15], 18.1 µM; in assay [16], 0.823 µM; in [17], 2.54 µM.
In the case of `Cn1c(-c2cccs2)cc(-c2cccs2)c1-c1cccs1`, the TGI in assay [1], in assay [2], in assay [3], in assay [4], in assay [5] and in assay [6] was more than 100 µM throughout. Besides, the TGI in assay [7] is more than 51.8 µM; in assay [8], more than 100 µM; in assay [9], more than 100 µM; in [10] it was more than 100 µM; in assay [11], more than 100 µM; in [12], more than 100 µM. Moreover, the TGI in assay [13] was more than 100 µM; in assay [14] it was more than 100 µM; in assay [15], more than 100 µM; in assay [16] it was more than 100 µM; in [17], more than 93.5 µM.
Turning to `O=C1CC(Br)c2c(Br)sc(Br)c21` (stereo unspecified), the TGI in assay [1] was 32 µM; in assay [2] it was 31.1 µM; in assay [3], 30.4 µM; in assay [4], 42.4 µM; in assay [5], 39 µM; in assay [6], more than 100 µM. Besides, the concentration for total growth inhibition (TGI) in [7] is 38.3 µM; in assay [8], more than 100 µM; in [9], 38.8 µM; in assay [10], 58.7 µM; in assay [11], 31.4 µM; in assay [12] it was 36.7 µM. Moreover, the TGI in assay [13] was 26.4 µM; in assay [14], 32.9 µM; in assay [15] it was 76.2 µM; in [16], 38.3 µM; in [17] it was 24.4 µM.
